Patent publication US9629817B2 (priority 2005, dated 2017)
Where two headings read alike, the source gives them in different places.

System: Pigs
Settings: riluzole ip 8 mg/kg; for average number of episodes of sustained arrhythmias: VT or VF lasting more than 15 seconds
Protocol: Pigs of either sex and weighing between 20 and 35 kg were each anaesthetised with thiopentone sodium (10-15 mg/kg iv) and maintained under general anaesthesia with isoflurane (0.5-2% in oxygen). Artificial ventilation was maintained at a volume of 15 ml/kg and a rate of 12 breaths per minute. […] Subsequent to a mid-stemotomy and division of the pericardium, the left anterior coronary artery (LAD) was occluded mid-way along its length by permanent ligation.

[1] = first three hours post commencement of hypoxia
[2] = phase 2 (60-180 minutes post LAD occlusion)

Nc1nc2ccc(OC(F)(F)F)cc2s1 [riluzole, 2-amino-6-tritluoromethoxybenzothiazole]
animals which developed any non-sustained arrhythmias [1]: 50%
animals which developed any sustained arrhythmias [1]: 50%
number of spontaneous PVCs (single), riluzole vs control group (phase 1a (first 15 minutes of hypoxia following LAD occlusion)): no significant difference
average number of episodes of sustained arrhythmias (phase 1a): 0.17 episodes per animal
fall in number of episodes of non-sustained arrhythmias vs control group (phase 1a): 43%
fall in number of episodes of sustained arrhythmias vs control group (phase 1a): 58%
number of geminy beats (bigeminy, trigeminy and quadrigeminy) occurring spontaneously, riluzole vs control group (phase 1a): no significant
number of multiple PVCs occurring spontaneously, riluzole vs control group (phase 1a): no significant difference
number of spontaneous PVCs (single), riluzole vs control group (phase 1b (15-60 minutes post LAD occlusion)): no significant difference
average number of episodes of sustained arrhythmias (phase 1b): 0.33 episodes per animal
fall in number of episodes of non-sustained arrhythmias vs control group (phase 1b): 35%
fall in number of episodes of sustained arrhythmias vs control group (phase 1b): 86%
number of geminy beats (bigeminy, trigeminy and quadrigeminy) occurring spontaneously, riluzole vs control group (phase 1b): no significant
number of multiple PVCs occurring spontaneously, riluzole vs control group (phase 1b): no significant difference
average number of PVCs (single) [2]: 17
drop in average number of PVCs (single) vs control group [2]: 91%
average number of episodes of sustained arrhythmias (phase 2): 0.33 episodes per animal
average number of geminy beats (phase 2): 0
average number of multiple PVCs (phase 2): 7
drop in average number of geminy beats vs control group (phase 2): 100%
drop in average number of multiple PVCs vs control group (phase 2): 93%
fall in number of episodes of non-sustained arrhythmias vs control group (phase 2): 92%
fall in number of episodes of sustained arrhythmias vs control group (phase 2): 90%
